Results as given in patent publication US11998008B2, “Pesticides and methods of controlling pests” (The State of Israel, Ministry of Agriculture & Rural …, priority 2017, dated 2024).

Assays:
Tomato plants = test: Phytotoxicity on tomato plants in soil, compound on perlite particles; assay type: in vivo; settings: one day after treatment
Description: In exemplary procedures, the phytotixicity of trans-2-octenal and 2-cyclopenten-1-one was examined in triplicates for each concentration: 250, 1,000, 4,000, and 20,000 ppm compared to control.

S. rolfsii = test: Fungicidal activity assay on PDA in sealed Petri dish (growth inhibition and mortality); assay type: cell-based, Sclerotinia rolfsii; settings: Agroathelia rolfsii; S. rolfsii; NA + number = still viable in the highest concentration tested (given as >); read-out: M - Mortality, minimal concentration that killed the fungus
[1] = system: Sclerotium rolfsii sclerotia; test: Effect on Sclerotium rolfsii sclerotia buried in buckets; assay type: in vivo
Method: The activity of trans-2-octenal was examined against phytopathogenic fungi and weeds. The experiment was performed in large buckets (110 L), which bottoms were removed, and therefore the loam in the bucket was continuous with the ground. The soil was inoculated one day prior the application of the compound. Soil inoculation was performed as follows: spores of Fusarium oxysporum […]-cucumerinum (FORC) were collected from culture plates and 25 mL of spore suspension at concentration of 9×10^5 was mixed with 10 L of tap water and then poured on the soil of each bucket. […] Half of the buckets were sealed with nylon while the other half remained open. Five days later, soil samples from three different depths (10, 20, and 30 cm) were taken from each bucket for fungal isolation and determination of fungal survival. […] After 3 days, the number of colonies was counted. […] Similar experiment was carried out with Sclerotium rolfsii as the phytopathogen fungus. The experiment was performed as above with the following modifications: 50 sclerotia of S. rolfsii were inserted into paper tea-bags and warped with nylon tights. Each bucket contained 9 tea-bags, 3 for each depth of 10, 20, and 30 cm. After burying the tea bags, the soil was watered with 10 L of tap water. […] Hyphal growth was detected after 2 days incubation at 25° C.

[2] = system: F. oxysporum f. sp. radicis-cucumerium; test: Fungicidal activity assay on PDA in sealed Petri dish (growth inhibition and mortality); assay type: cell-based, Fusarium oxysporum f. sp. radicis-cucumerinum; settings: Fusarium oxysporum, NA + number = still viable in the highest concentration tested (given as >), read-out: M - Mortality, minimal concentration that killed the fungus
Meloidogyne javanica J2s = test: Greenhouse nematocidal experiment with susceptible tomato plants in inoculated loam; assay type: in vivo; settings: 30 ppm in soil, tomato harvested after 8 weeks
Method: The activity of trans-2-octenal against nematodes was examined in a greenhouse experiment using stage 2 juveniles of the rot-knot nematode Meloidogyne javanica. […] After 2 days, the inoculated soil was treated with 30 ppm of trans-2-octenal and incubated for additional 5 days. Then, susceptible tomato plants were planted, and allowed to grow in a growing chamber for 8 weeks. At the end of the experiment, the plants, along with their root systems, were harvested from their pots and evaluated for incidence of root galling. In addition, M. javanica eggs were extracted from each root and counted, and the number of eggs per gram root was calculated. As shown in FIGS. 14A-14D, trans-2-octenal reduced the galling index and the number of eggs per gram root. […] The activity of 2-cyclohexen-1-one against nematodes was examined in a greenhouse experiment using stage 2 juveniles of the rot-knot nematode Meloidogyne javanica. The experiment was performed as described for trans-2-octenal. […] After 2 days, the inoculated soil was treated with 15 or 31 ppm of 2-cyclohexen-1-one and incubated for additional 5 days. Then, susceptible tomato plants were planted, and allowed to grow in a growing chamber for 8 weeks. At the end of the experiment, the plants, along with their root systems, were harvested from their pots and evaluated for incidence of root galling. In addition, M. javanica eggs were extracted from each root and counted, and the number of eggs per gram root was calculated.

sclerotia of S. rolfsii = test: Open field experiment in sandy soil; assay type: in vivo, Sclerotium rolfsii; settings: emulsion, 54 ppm active compound, 6 days
Method: In this experiment, an emulsions of trans-2-octenal (25% active compound) such as those described in Example 9 were used. The soil was inoculated with chlamydospores of Forl and sclerotia of S. rolfsii. Five gram of soil, highly inoculated with chlamydospores were wrapped in nylon tights and buried in the field at depths of 10, 30, and 50 cm. Tea bags containing 50 S. rolfsii sclerotia were prepared as described above and buried similarly. After 6 days, trans-2-octenal emulsion, at concentration of 54 ppm (active compound) was applied using the irrigation system. The same conditions were applied to a control plot except that the plot was irrigated with tap water without the compound. The plots were left open during the time of the experiment. After 6 days, the pathogens were removed from the soil and their viability was examined using PDA+tet culture plates. […] As shown in these figures, elimination of both phytopathogenic fungi occurred at the lowest depth of 10 cm.

`CCCCC/C=C/C=O` [trans-2-octenal] was tested, and the phytotoxicity (Tomato plants; 250 ppm) was “No phytotoxicity”, the phytotoxicity (Tomato plants; 1,000 ppm) was “No phytotoxicity” and the phytotoxicity (Tomato plants; 4,000 ppm) was “No phytotoxicity”. For the same compound, the phytotoxicity (Tomato plants; 20,000 ppm) was “No phytotoxicity”, the MFC (S. rolfsii) was 6.25 µg/mL and the viability of sclerotia ([1]; depth 10 cm, open and close conditions, 125-250 ppm) was “reduced significantly”. For the same compound, the “effect on viability of sclerotia” value ([1]; depth 30 cm, close conditions only, 250 ppm) was “significant effect”, the MFC [2] was 6.25 µg/mL and the galling index (Meloidogyne javanica J2s) was “reduced”. For the same compound, the “number of eggs per gram root” value (Meloidogyne javanica J2s) was “reduced”, the “viability of S. rolfsii sclerotia” value (sclerotia of S. rolfsii; 30 and 50 cm depth) was “No elimination” and the “viability of S. rolfsii sclerotia” value (sclerotia of S. rolfsii; depth 10 cm, open plot) was “elimination”.
